In patent publication US10716869B2, “Radiolabeled macrocyclic EGFR inhibitor” (Oncodesign SA, priority 2016, dated 2020):

Experiments:
[1] = biodistribution by ex vivo γ-counting in Sprague Dawley rats
Method: To evaluate the biodistribution of the pure S (II) and R (III) enantiomers compared to compound (I), dynamic PET scan imaging and ex vivo gamma counting were performed on Sprague Dawley rats. Animals were injected with the radiotracer solution diluted in NaCl 0.9% to prepare a solution of activity 4-6 MBq (gamma-counting experiments) or 11-13 MBq (PET imaging experiments) in a volume of 300-400 or 600-800 μL, respectively. Radioactivity content in all biological samples was determined with scintillation γ-counter (Cobra 4180, Perkin-Elmer Inc.).
At the light of the biodistribution data of compound (I), the biodistribution of the R (III)- and S (II)-enantiomers was assessed by γ-counting in the organs in which the accumulation of compound (I) was prominent (that is: blood, heart, kidneys, liver, stomach, small intestine and colon). Two timepoints were selected: 5 and 30 minutes post-injection. […] The higher uptakes of R enantiomer (III) and S enantiomer (II) in these organs were expected to be observed at early timepoints after injection, giving the highest signals in the γ-counter and therefore making the comparison of biodistribution data more relevant. Besides, as PET images were acquired with compound (I), PET imaging was included in the evaluation of the biodistribution of R enantiomer and S enantiomer. This gave the opportunity to had one additional timepoint at 4 hours post-injection for collection of major organs and determination of radioactivity content by ex vivo γ-counting.

[2] = tested on: human lung tumors (wild type EGFR, L858R mutated or exon 19 deleted EGFR); assay: autoradiography on human frozen tumor sections; settings: ATP at 10 mM
Excerpt: Three types of human lung tumors were included: tumors harboring wild type EGFR and tumors carrying L858R mutated or exon 19 deleted EGFR genes.

[3] = radiochemical stability in vehicle by HPLC; format: physicochemical; settings: conditions of formulation, storage at room temperature
Method: By this method, the final radiolabeled compound can be obtained with a radiochemical purity greater than 98% in 100-110 min with a yield that can reach 25% (decay corrected). It has been noticed that an uncompleted evaporation of the solvents used for the purification of [^18F]Fluoroethyltosylate hampers the second step and conducts to lower yields. Specific activity of productions was in the range of […]. The radiolabeled compound is stable in the conditions of formulation as radiochemical purity still greater than 95% 20 h after production with a storage at room temperature.
(§1) After radiosynthesis, the stability of the radiotracer was evaluated by HPLC both in its vehicle and in rat plasma. Compound (I) was formulated in physiologic serum/ethanol with the respective proportion 87.5/12.5 (v/v). A mixture of compounds (I) (i.e. radiolabelled) and (Ia) (i.e. cold analogue) was stable for up to 20 hours at room temperature in its vehicle, only one peak being detected at the expected retention time. In rat plasma two peaks were detected: one at 3.15 minutes and one at 8.02 minutes (corresponding to a mixture of compounds (I) and (Ia)) after an incubation at +37° C. for 4 hours.

[4] = plasma stability by HPLC; format: in vitro ADME, rat; settings: checked up to 4 h
Method: as §1

Row | uptake in liver ([1]; 5 minutes post injection) [% ID/g] | uptake in small intestine ([1]; 5 minutes post injection) [% ID/g] | uptake in blood ([1]; 5 minutes post-injection) [% ID/g] | uptake in heart ([1]; 5 minutes post-injection) [% ID/g] | uptake in kidneys ([1]; 5 minutes post-injection) [% ID/g] | uptake in stomach ([1]; 5 minutes post-injection) [% ID/g] | uptake in liver ([1]; 30 minutes post injection) [% ID/g] | uptake in heart ([1]; 30 minutes post-injection) [% ID/g] | uptake in kidneys ([1]; 30 minutes timepoint) [% ID/g] | uptake in stomach ([1]; 30 minutes timepoint) [% ID/g] | uptake in stomach ([1]; four hours post-injection) [% ID/g] | uptake in small intestine ([1]; thirty minutes post-injection) [% ID/g] | radiochemical purity 20 h after production [3] | Plasmatic stability [4] | SMILES | competition with the binding of Compound (I) on frozen tumor sections [2]
1 | 0.02±0.09 | 0.35±0.19 | 0.20±0.002 | 0.99±0.02 | 4.15±0.79 | 1.86±0.73 | 0.71±0.07 | 0.10±0.02 | 0.25±0.08 | 0.26±0.07 | 2.58±2.52 | 0.02±0.004 |  |  | CC(C)[C@H]1NC(=O)Cc2ccc(Cl)cc2Nc2ncnc3cc(OCC[18F])c(cc23)OCCCNC1=O [(III)] | 
2 |  |  |  |  |  |  |  |  |  |  |  |  |  |  | Nc1ncnc2c1ncn2[C@@H]1O[C@H](COP(=O)(O)OP(=O)(O)OP(=O)(O)O)[C@@H](O)[C@H]1O [ATP, reference compound] | totally abolished the binding of Compound (I)
3 | 0.97±0.92 | 0.08±0.09 | 0.11±0.01 | 1.35±0.35 | 6.89±0.52 | 0.72±0.38 | 0.15±0.03 | 0.19±0.08 | 1.04±0.17 | 0.20±0.05 | 2.39±2.31 | 0.08±0.07 | greater than 95% | without significant degradation | CC(C)[C@@H]1NC(=O)Cc2ccc(Cl)cc2Nc2ncnc3cc(OCC[18F])c(cc23)OCCCNC1=O [Compound (II)] | 
